Read-outs that look alike come from different tables or passages of the source.
Columns and labels:
[1] = molecular target: T1, CYP1A2 (Homo sapiens, UniProt P05177); test: in vitro; conditions: E. coli expressed CYP1A2, pH 7.4, probe CEC 5 μM
T1 sequence (P05177 1-516): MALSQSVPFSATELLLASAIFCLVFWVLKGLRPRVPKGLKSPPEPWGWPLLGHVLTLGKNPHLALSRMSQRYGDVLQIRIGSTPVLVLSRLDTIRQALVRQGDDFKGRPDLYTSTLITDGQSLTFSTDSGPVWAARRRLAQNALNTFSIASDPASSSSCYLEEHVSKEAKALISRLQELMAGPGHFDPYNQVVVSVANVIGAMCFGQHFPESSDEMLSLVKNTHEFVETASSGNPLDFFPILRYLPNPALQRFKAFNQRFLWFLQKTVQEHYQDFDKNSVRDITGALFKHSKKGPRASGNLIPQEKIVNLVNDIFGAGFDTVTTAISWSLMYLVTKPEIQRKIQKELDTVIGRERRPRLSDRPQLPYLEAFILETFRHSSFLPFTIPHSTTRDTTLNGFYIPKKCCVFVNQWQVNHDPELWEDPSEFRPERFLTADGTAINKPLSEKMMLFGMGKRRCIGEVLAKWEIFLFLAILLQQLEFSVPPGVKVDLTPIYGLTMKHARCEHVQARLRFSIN
Experimental: (§6) Inhibition of the metabolism of test compounds by different CYP P450 isoenzymes was determined using E. coli expressed proteins (3A4, 2C9, 2D6, 1A2, and 2C19) that convert their specific substrates into a fluorescent molecule (Table 6). This fluorescent molecule was measured using a fluorescent plate reader (Victor2 (Wallac) or Fluoroskan (Labsystems)). […] CYP P450 enzymes were prepared in house or commercially bought and stored at −80° C.
(§7) The assay was performed in black 96 well Costar plates. Test compounds were added to a CYP P450 enzyme solution in the presence of an NADPH generating system. After 5 min of preincubation at 37° C., the freshly prepared, phosphate buffered (pH 7.4) substrate solution was added. Known CYP P450 inhibitors were used as positive controls, negative controls were run without CYP P450 enzyme. […] Reaction mixtures were incubated at 37° C. for 30 min (CYP3A4-BFC), 30 min (CYP3A4-BQ), 10 min (CYP3A4-DBF), 15 min (CYP1A2-CEC), 30 min (CYP2C9-MFC, CYP2C19-CEC), or 45 min (CYP2D6-AMMC), respectively. Then, the reaction was stopped by the addition of 200 μl acetonitrile, and the fluorescent signal was detected.
(§8) Calculation of CYP P450 isoenzyme inhibition (% inh.):
(§9) % activity=(100/(average positive control−average negative control))×(average sample−average negative control)

[2] = molecular target: T2, CYP3A4 (Homo sapiens, UniProt P08684); test: CYP450 inhibition CDNA-CYP3A4-BFC; conditions: for inhibition at 30 min, 10 μM: human, E. coli expressed CYP3A4, pH 7.4, probe BFC 150 μM; for Cyp450 inhibition: CDNA-CYP3A4-BFC (% inhibition): 10 μM test compound, substrate BFC 150 μM, 30 min
T2 sequence (P08684 whole entry): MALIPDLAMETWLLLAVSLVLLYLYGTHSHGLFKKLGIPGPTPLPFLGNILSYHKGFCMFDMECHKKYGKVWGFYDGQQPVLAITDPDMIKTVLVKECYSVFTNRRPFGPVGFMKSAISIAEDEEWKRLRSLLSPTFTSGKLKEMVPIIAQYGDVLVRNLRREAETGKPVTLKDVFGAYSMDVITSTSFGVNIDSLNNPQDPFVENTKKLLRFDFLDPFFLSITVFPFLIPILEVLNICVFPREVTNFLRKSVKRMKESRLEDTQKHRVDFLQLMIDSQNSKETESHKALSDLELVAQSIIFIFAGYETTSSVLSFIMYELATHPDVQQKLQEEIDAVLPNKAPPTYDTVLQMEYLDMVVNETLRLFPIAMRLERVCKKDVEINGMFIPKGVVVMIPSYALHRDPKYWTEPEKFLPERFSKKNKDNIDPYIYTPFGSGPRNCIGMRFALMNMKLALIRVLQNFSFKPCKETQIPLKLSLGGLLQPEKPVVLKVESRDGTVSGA
From the text: (§1) Assay 4: CYP450 Inhibition

[3] = tested on: wild-type HIV-1IIIB strain; test: Antiviral activity, MT4 LTR-EGFP cellular assay; assay type: cell-based; parameters: key to Antiviral activity IIIB (pEC50): pEC50 = -log10(EC50); conditions: for EC50: read-out: Antiviral activity IIIB (pEC50) (converted)
Experimental: (§2) Assay 1 &2: Antiviral Activity/Toxicity
The compounds of the present invention were tested for antiviral activity in a cellular assay, which was performed according to the following procedure.
The human T-cell line MT4 is engineered with Green Fluorescent Protein (GFP) and an HIV-specific promoter, HIV-1 long terminal repeat (LTR). This cell line is designated MT4 LTR-EGFP, and can be used for the in vitro evaluation of anti-HIV activity of investigational compounds. In HIV-1 infected cells, the Tat protein is produced which upregulates the LTR promotor and finally leads to stimulation of the GFP reporter production, allowing measuring ongoing HIV-infection fluorometrically.
(§3) The ratio of CC50 to EC50 is defined as the selectivity index (SI) and is an indication of the selectivity of the anti-HIV activity of the inhibitor. The ultimate monitoring of HIV-1 infection and cytotoxicity is done using a scanning microscope. Image analysis allows very sensitive detection of viral infection. Measurements are done before cell necrosis, which usually takes place about five days after infection, in particular measurements are performed three days after infection.
(§4) A pEC50 value corresponds to −log10(EC50). A pCC50 value corresponds to −log10(CC50).

[4] = molecular target: T2, CYP3A4; test: in vitro; conditions: human, pH 7.4
From the text: as §1

[5] = molecular target: CYP2C9 (Homo sapiens, UniProt P11712); test: in vitro; conditions: for inhibition at 30 min, 10 μM: human, pH 7.4
Chain of CYP2C9 (P11712 whole entry): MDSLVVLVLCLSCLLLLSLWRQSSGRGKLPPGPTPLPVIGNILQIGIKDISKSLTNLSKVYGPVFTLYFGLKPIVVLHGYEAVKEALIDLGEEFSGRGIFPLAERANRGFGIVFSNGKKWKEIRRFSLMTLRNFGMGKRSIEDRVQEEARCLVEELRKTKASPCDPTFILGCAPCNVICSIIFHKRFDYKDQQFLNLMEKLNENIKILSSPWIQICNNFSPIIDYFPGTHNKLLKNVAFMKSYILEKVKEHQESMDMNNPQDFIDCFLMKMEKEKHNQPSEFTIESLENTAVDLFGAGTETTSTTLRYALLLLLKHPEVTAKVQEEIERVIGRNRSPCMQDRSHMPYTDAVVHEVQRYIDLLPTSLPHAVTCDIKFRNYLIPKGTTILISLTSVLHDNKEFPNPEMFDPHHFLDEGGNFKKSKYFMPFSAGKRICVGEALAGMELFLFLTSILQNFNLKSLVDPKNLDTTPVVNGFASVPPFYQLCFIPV
From the text: as §1

[6] = molecular target: CYP2D6 (Homo sapiens, UniProt P10635); test: in vitro; conditions: pH 7.4
Chain of CYP2D6 (P10635 whole entry): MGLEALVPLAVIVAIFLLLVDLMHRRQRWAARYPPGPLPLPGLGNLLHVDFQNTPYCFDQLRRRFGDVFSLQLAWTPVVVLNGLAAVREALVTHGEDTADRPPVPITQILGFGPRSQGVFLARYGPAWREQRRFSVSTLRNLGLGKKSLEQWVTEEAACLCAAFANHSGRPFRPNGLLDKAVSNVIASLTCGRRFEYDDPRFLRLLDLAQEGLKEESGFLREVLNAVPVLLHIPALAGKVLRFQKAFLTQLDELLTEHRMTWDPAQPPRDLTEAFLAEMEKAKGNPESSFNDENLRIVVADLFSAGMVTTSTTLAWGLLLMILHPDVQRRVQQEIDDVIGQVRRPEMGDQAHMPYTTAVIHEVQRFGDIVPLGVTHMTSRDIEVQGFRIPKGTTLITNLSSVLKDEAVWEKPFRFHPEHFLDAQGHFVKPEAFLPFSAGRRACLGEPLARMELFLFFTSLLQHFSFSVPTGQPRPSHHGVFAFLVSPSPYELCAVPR
Experimental: as §6, §7, §8, §9

[7] = Metabolic stability of test compounds (HLM15'); assay type: in vitro ADME, human; conditions: human liver microsomes 1 mg/ml, 5 μM test compound, 15 min; for recovery at 15 min, 5 μM: pH 7.4, read-out: Metabolic stability (HLM, % recovery after 15')
From the text: Human liver tissue is rinsed in ice-cold 0.1 M Tris-HCl (pH 7.4) buffer to wash excess blood. Tissue is then blotted dry, weighed and chopped coarsely using surgical scissors. The tissue pieces are homogenized in 3 volumes of ice-cold 0.1 M phosphate buffer (pH 7.4) using either a Potter-S (Braun, Italy) equipped with a Teflon pestle or a Sorvall Omni-Mix homogenizer, for 7×10 sec. In both cases, the vessel is kept in/on ice during the homogenization process. Tissue homogenates are centrifuged at 9000×g for 20 min at 4° C. using a Sorvall centrifuge or Beckman Ultracentrifuge. The resulting supernatant can be stored at −80° C. and is designated ‘S9’. The S9 fraction is centrifuged at 100,000×g for 60 min at 4° C. using a Beckman ultracentrifuge. The resulting supernatant is carefully aspirated, aliquoted and designated ‘cytosol’. The pellet is re-suspended in 0.1 M phosphate buffer (pH 7.4) in a final volume of 1 ml per 0.5 g original tissue weight and designated ‘microsomes’. All sub-cellular fractions are aliquoted, immediately frozen in liquid nitrogen and stored at −80° C. until use.
Heat-inactivated (10 min at 95° C.) ‘S9’ or microsomes were used for blank experiments. […] The reaction was incubated for 0 or 15 min. Next, the reaction was stopped by addition of 2 volumes of DMSO (or acetonitrile). Samples were centrifuged (10 min, 900×g) and analyzed by LC-MS.

[8] = Toxicity, mock-infected MT4 CMV-EGFP cells; assay type: cell-based, human; conditions: human; for CC50 at 3 days: mock-infected MT4 CMV-EGFP cells, read-out: Toxicity MT4 (pCC50) (converted)
From the text: as §2
(§5) Analogously, MT4 cells are engineered with GFP and the constitutional cytomegalovirus (CMV) promotor. […] Cytotoxic investigational compounds reduce GFP levels of mock-infected MT4 CMV-EGFP cells.
as §3, §4

[9] = molecular target: T3, CYP2C19 (Homo sapiens, UniProt P33261); test: in vitro; conditions: E. coli expressed CYP2C19, pH 7.4, probe CEC 25 μM
T3 sequence (P33261 whole entry): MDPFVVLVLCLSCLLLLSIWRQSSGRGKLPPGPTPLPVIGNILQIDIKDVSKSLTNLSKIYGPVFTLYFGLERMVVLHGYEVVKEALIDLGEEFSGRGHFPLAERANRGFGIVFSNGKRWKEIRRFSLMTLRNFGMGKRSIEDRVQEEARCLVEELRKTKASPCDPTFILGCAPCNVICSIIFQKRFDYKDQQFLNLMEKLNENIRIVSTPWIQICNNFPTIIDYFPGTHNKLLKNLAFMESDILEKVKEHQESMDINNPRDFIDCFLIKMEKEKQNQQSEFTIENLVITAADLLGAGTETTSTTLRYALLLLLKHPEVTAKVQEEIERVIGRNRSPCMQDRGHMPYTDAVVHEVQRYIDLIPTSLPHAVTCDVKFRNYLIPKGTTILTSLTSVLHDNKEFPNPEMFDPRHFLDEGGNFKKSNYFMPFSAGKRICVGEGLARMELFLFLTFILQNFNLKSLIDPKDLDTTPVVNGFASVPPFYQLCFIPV
Experimental: as §6, §7, §8, §9

[10] = molecular target: T2, CYP3A4; test: CYP450 inhibition CDNA-CYP3A4-BQ; conditions: for inhibition at 30 min, 10 μM: human, E. coli expressed CYP3A4, pH 7.4, probe BQ 60 μM; for Cyp450 inhibition: CDNA-CYP3A4-BQ (% inhibition): 10 μM test compound, substrate BQ 60 μM, 30 min
From the text: as §1

[11] = molecular target: T3, CYP2C19; test: CYP450 inhibition CDNA-CYP2C19-CEC; conditions: 10 μM test compound, substrate CEC 25 μM, 30 min
Experimental: as §6, §7, §8, §9

[12] = tested on: MT4 CMV-EGFP cells; test: Toxicity, mock-infected MT4 CMV-EGFP cells; assay type: cell-based, human
From the text: as §2, §5, §3, §4

[13] = Human immunodeficiency virus 1, 72 h, wild-type HIV-1 IIIB, MT4 LTR-EGFP cells, three days after infection
[14] = wild-type HIV-1 IIIB, MT4 LTR-EGFP cells, three days after infection

Structure (SMILES) | inhibition at 15 min, 10 μM [1] [%] | inhibition at 30 min, 10 μM [2] [%] | EC50 [3, 13] [µM] | inhibition at 10 min, 10 μM [4] [%] | inhibition at 30 min, 10 μM [5] [%] | inhibition at 45 min, 10 μM [6] [%] | recovery at 15 min, 5 μM [7] [%] | inhibition at 30 min, 10 μM [9] [%] | inhibition at 30 min, 10 μM [10] [%] | EC50 ([3]; Human immunodeficiency virus 1, IIIB, 72 h) [µM] | Cyp450 inhibition: CDNA-CYP3A4-BFC (% inhibition) [2] [%] | Antiviral activity IIIB (pEC50) [3, 14] | Cyp450 inhibition: CDNA-CYP2C9-MFC (% inhibition) [5] [%] | Metabolic stability (HLM, % recovery after 15') [7] [%] | Cyp450 inhibition: CDNA-CYP2C19-CEC (% inhibition) [11] [%] | Cyp450 inhibition: CDNA-CYP3A4-BQ (% inhibition) [10] [%] | CC50 at 3 days [8] [µM] | CC50 [8] [µM] | Toxicity MT4 (pCC50) [12]
CC(C)CN(C[C@@H](O)[C@H](Cc1ccccc1)NC(=O)OCc1cncs1)C(=O)c1ccc2ncoc2c1 [Compound C38, Thiazol-5-ylmethyl (2S,3R)-3-hydroxy-4-(N-isobutylbenzo[d]oxazole-6-carboxamido)-1-phenylbutan-2-ylcarbamate] | 7 | 95 | > 100 | 92 | 93 | 77 | 67 | 81 | 76 |  |  |  |  |  |  |  | > 100 |  | 
CCN(C)c1nc2ccc(C(=O)N(CC(C)C)C[C@@H](O)[C@H](Cc3ccc(F)cc3)NC(=O)OCc3cncs3)cc2o1 [Compound C53, Thiazol-5-ylmethyl (2S,3R)-4-(2-(ethyl(methyl)amino)-N-isobutylbenzo[d]-oxazole-6-carboxamido)-1-(4-fluorophenyl)-3-hydroxybutan-2-ylcarbamate] | 0 |  | 46.8 |  | 96 | 61 | 71 | 95 |  |  |  |  |  |  |  |  |  | 50.1 | 
CC(C)(C)CN(C[C@@H](O)[C@H](Cc1ccccc1)NC(=O)OCc1cncs1)C(=O)c1ccc2nc(N3CCCC3)oc2c1 [Compound C37] |  |  |  |  |  |  |  |  |  |  | 97 | =4.35 | 96 | 71 | 92 | 79 |  |  | =4.31
O=C(N[C@@H](Cc1ccccc1)[C@H](O)CN(CCN1CCCC1)C(=O)c1ccc2nc(N3CCCC3)oc2c1)OCc1cncs1 [Compound C13] |  |  |  |  |  |  |  |  |  |  | 91 | =4.24 | 42 | 81 | 46 | 76 |  |  | <4.00
CC(C)(O)CN(C[C@@H](O)[C@H](Cc1ccccc1)NC(=O)OCc1cncs1)C(=O)c1ccc2nc(N3CCCC3)oc2c1 [Compound C28] |  |  |  |  |  |  |  |  |  |  | 98 | <4.00 | 99 | 72 | 83 | 79 |  |  | <4.00
O=C(N[C@@H](Cc1ccccc1)[C@H](O)CN(CCN1CCOCC1)C(=O)c1ccc2nc(N3CCCC3)oc2c1)OCc1cncs1 [Compound C20] |  |  |  |  |  |  |  |  |  |  | 96 | <4.00 | 72 | 65 | 65 | 81 |  |  | <4.00

More lines, main results first:

inhibition at 15 min, 10 μM [1] [%] | inhibition at 30 min, 10 μM [2] [%] | EC50 [3, 13] [µM] | inhibition at 10 min, 10 μM [4] [%] | inhibition at 30 min, 10 μM [5] [%] | inhibition at 45 min, 10 μM [6] [%] | recovery at 15 min, 5 μM [7] [%] | inhibition at 30 min, 10 μM [9] [%] | inhibition at 30 min, 10 μM [10] [%] | EC50 ([3]; Human immunodeficiency virus 1, IIIB, 72 h) [µM] | Cyp450 inhibition: CDNA-CYP3A4-BFC (% inhibition) [2] [%] | Antiviral activity IIIB (pEC50) [3, 14] | Cyp450 inhibition: CDNA-CYP2C9-MFC (% inhibition) [5] [%] | Metabolic stability (HLM, % recovery after 15') [7] [%] | Cyp450 inhibition: CDNA-CYP2C19-CEC (% inhibition) [11] [%] | Cyp450 inhibition: CDNA-CYP3A4-BQ (% inhibition) [10] [%] | Structure (SMILES) | CC50 at 3 days [8] [µM] | CC50 [8] [µM] | Toxicity MT4 (pCC50) [12]
2 | 95 |  | 92 | 95 | 51 |  | 87 | 77 | 87.1 |  |  |  |  |  |  | CCc1nc2ccc(C(=O)N(CC(C)C)C[C@@H](O)[C@H](Cc3ccccc3)NC(=O)OCc3cncs3)cc2o1 [Compound C39, Thiazol-5-ylmethyl (2S,3R)-4-(2-ethyl-N-isobutylbenzo[d]oxazole-6-carboxamido)-3-hydroxy-1-phenylbutan-2-ylcarbamate] | > 100 |  | 
27 |  | 20.9 |  | 98 | 87 | 54 | 100 |  |  |  |  |  |  |  |  | CCN(C)c1nc2ccc(C(=O)N(CC3CCCCC3)C[C@@H](O)[C@H](Cc3ccccc3)NC(=O)OCc3cncs3)cc2o1 [Compound C32, Thiazol-5-ylmethyl (2S,3R)-4-(N-(cyclohexylmethyl)-2-(ethyl(methyl)-amino)benzo[d]oxazole-6-carboxamido)-3-hydroxy-1-phenylbutan-2-yl-carbamate] | 21.4 |  | 
 |  |  |  |  |  |  |  |  |  | 96 | <4.00 | 100 | 71 | 90 | 81 | CN(C[C@@H](O)[C@H](Cc1ccccc1)NC(=O)OCc1cncs1)C(=O)c1ccc2nc(N3CCCC3)oc2c1 [Compound C21] |  |  | <4.00
 |  |  |  |  |  |  |  |  |  | 95 | =4.53 | 98 | 78 | 96 | 85 | O=C(N[C@@H](Cc1ccccc1)[C@H](O)CN(CC1CCC(F)(F)CC1)C(=O)c1ccc2nc(N3CCCC3)oc2c1)OCc1cncs1 [Compound C47] |  |  | =4.38
 |  |  |  |  |  |  |  |  |  | 95 | <4.00 | 34 | 55 | 46 | 79 | CN(C)CCN(C[C@@H](O)[C@H](Cc1ccccc1)NC(=O)OCc1cncs1)C(=O)c1ccc2nc(N3CCCC3)oc2c1 [Compound C17] |  |  | <4.00
 |  |  |  |  |  |  |  |  |  |  | <4.00 |  | 78 | 92 |  | CC(C)CN(C[C@@H](O)[C@H](Cc1ccccc1)NC(=O)OCc1cncs1)C(=O)c1ccc2nc(N3CCCC3)oc2c1 [Compound C2] |  |  | <4.00
